Assay: Persistence length by light scattering
Assay type: physicochemical
Conditions: little or no substitution; folded polypeptide
Description: An elongated, worm-like conformation of a macromolecule results in greater uptake than other conformations, such as folded, or globular conformations. Conformation may be measured by a persistence length of the molecule. This may be determined by light scattering.
The conformation attained by the present polymeric contrast agents is that of a worm-like shape being essentially a stretched out, extended chain with little folding. A measure of the “straightness” of a molecule is a persistence length. Persistence length is related to a radius of gyration, measured by light scattering experiments. A folded polypeptide such as poly-L-lysine (PLL) with little or no substitution, has a low persistence length of about 10 Angstroms (Å), and is not suitable for diagnosing sepsis. Therefore, the present polymeric contrast agents preferably have a persistence lengths of 100-600 Å.

poly-L-lysine [poly-L-lysine (PLL)]
persistence length: about 10 Angstroms (Å)
